Results as given in ChEMBL document CHEMBL3124876, “A perylene derivative regulates HIF-1α and Stat3 signaling pathways” (Bioorg Med Chem, 2014).
Activity calls are given as the source filed them. The calls are words filed in the database; no cut-off is given here.

What was measured:
[1] = molecular target: Signal transducer and activator of transcription 3 (Homo sapiens) (UniProt P40763); conditions: 10 uM
Description: Inhibition of STAT3 (unknown origin) phosphorylation at 10 uM after 30 mins by cell-based Western blotting analysis

MDA-MB-231 [2] = assay: Anticancer activity in human MDA-MB-231 cells assessed as reduction of total Stat3 level at 10 uM after 18 hrs by Western blotting analysis; type: functional, cell-based
[3] = molecular target: T1, Signal transducer and activator of transcription 5A (Homo sapiens) (UniProt P42229); assay: Inhibition of Stat5 phosphorylation in human PANC1 cells at 0.5 to 20 uM by Western blotting analysis; type: cell-based; conditions: PANC-1
T1 sequence (whole entry): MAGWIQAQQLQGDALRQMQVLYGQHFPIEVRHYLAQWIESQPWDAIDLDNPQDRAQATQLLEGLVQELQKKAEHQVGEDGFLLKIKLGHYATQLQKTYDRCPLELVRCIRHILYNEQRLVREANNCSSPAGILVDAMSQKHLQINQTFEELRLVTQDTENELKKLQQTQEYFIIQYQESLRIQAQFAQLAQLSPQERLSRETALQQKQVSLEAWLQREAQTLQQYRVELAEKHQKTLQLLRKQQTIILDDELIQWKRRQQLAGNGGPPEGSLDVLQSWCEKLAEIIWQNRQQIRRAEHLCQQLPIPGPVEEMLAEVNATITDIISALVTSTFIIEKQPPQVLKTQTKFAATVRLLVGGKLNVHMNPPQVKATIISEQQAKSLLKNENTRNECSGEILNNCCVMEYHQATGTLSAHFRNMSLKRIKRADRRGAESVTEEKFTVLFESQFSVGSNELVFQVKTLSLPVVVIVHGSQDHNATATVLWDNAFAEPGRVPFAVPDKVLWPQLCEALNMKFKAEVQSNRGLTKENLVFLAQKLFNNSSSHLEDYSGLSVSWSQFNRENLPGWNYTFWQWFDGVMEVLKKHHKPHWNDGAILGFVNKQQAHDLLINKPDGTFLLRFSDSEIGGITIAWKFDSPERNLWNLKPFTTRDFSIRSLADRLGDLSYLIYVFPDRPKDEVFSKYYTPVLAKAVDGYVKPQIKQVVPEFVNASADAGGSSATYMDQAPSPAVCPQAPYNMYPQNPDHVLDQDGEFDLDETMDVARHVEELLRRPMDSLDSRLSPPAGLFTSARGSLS

MDA-MB-231 [4] = assay: Induction of apoptosis in human MDA-MB-231 cells assessed as reduction in cell viability at 1 to 10 uM by MTT assay; type: functional, cell-based
[5] = Antitumor activity against human PANC1 cells xenografted in Balb nu/nu mouse assessed as mean tumor volume at 2 mg/kg, ip administered every other day for 10 days measured after 19 days (reference value: 754 mm'3); type: functional, PANC-1; conditions: route intraperitoneal
MDA-MB-468 [6] = assay: Induction of apoptosis in human MDA-MB-468 cells assessed as reduction in cell viability at 1 to 10 uM by MTT assay; type: functional, cell-based
[7] = molecular target: Hypoxia-inducible factor 1-alpha (Homo sapiens) (UniProt Q16665); assay: Inhibition of HIF-1 alpha in human PC3 cells after 18 hrs by Western blotting analysis in hypoxia condition; type: cell-based; conditions: PC-3
MCF7 = assay: Induction of apoptosis in human MCF7 cells assessed as reduction in cell viability at 8 uM after 12 to 48 hrs by MTT assay; type: functional, cell-based
[8] = molecular target: Signal transducer and activator of transcription 3 (Homo sapiens) (UniProt P40763); assay: Inhibition of Stat3 in human MDA-MB-231 cells assessed as inhibition of Stat3 phosphorylation at 10 uM after 18 hrs by Western blotting analysis; type: cell-based
[9] = molecular target: Proto-oncogene tyrosine-protein kinase Src (Homo sapiens) (UniProt P12931); assay: Inhibition of Src kinase (unknown origin) assessed as total SRC level at 10 uM after 6 hrs by cell-based Western blotting analysis
MDA-MB-468 [10] = assay: Induction of apoptosis in human MDA-MB-468 cells assessed as reduction in cell viability at 8 uM after 12 to 48 hrs by MTT assay; type: functional, cell-based
PANC-1 = assay: Inhibition of ERK phosphorylation in human PANC1 cells at 1 to 20 uM by Western blotting analysis; type: cell-based
[11] = molecular target: Signal transducer and activator of transcription 3 (Homo sapiens) (UniProt P40763); conditions: MDA-MB-468, 1 to 20 uM
Description: Inhibition of Stat3 phosphorylation in human MDA-MB-468 cells assessed as inhibition of Bcl2 expression at 1 to 20 uM by Western blotting analysis in hypoxia condition

[12] = molecular target: Signal transducer and activator of transcription 3 (Homo sapiens) (UniProt P40763); conditions: PANC-1, 1 to 20 uM
Description: Inhibition of Stat3 phosphorylation in human PANC1 cells assessed as inhibition of Bcl2 expression at 1 to 20 uM by Western blotting analysis in normoxia condition

[13] = molecular target: Aryl hydrocarbon receptor nuclear translocator (Homo sapiens) (UniProt P27540); assay: Inhibition of HIF-1 beta in human MDA-MB-231 cells at 1 to 20 uM by Western blotting analysis; type: cell-based
Mus musculus = assay: Toxicity in Balb nu/nu mouse assessed as change in body weight at 2 mg/kg, ip administered every other day for 10 days measured after 19 days; type: organism-based; parameters: dose 2 mg/kg, route intraperitoneal; conditions: in vivo, 456 h
MDA-MB-468 [14] = assay: Inhibition of HIF-1 in human MDA-MB-468 cells assessed as reduction of GLUT1 mRNA expression at 5 to 10 uM by RT-PCR analysis in hypoxia condition; type: cell-based
[15] = molecular target: RAC-alpha serine/threonine-protein kinase (Homo sapiens) (UniProt P31749); assay: Inhibition of AKT phosphorylation in human PANC1 cells at 1 to 20 uM by Western blotting analysis; type: cell-based; conditions: PANC-1
MDA-MB-231 [16] = assay: Antitumor activity against human MDA-MB-231 cells xenografted in Balb nu/nu mouse assessed as reduction in tumor growth at 5 mg/kg, po administered every other day for 10 days; type: functional, organism-based; parameters: dose 5 mg/kg
[17] = molecular target: Endothelial PAS domain-containing protein 1 (Homo sapiens) (UniProt Q99814); assay: Inhibition of HIF-2 alpha in human OVCAR3 cells at 1 to 20 uM by Western blotting analysis in hypoxia condition; type: cell-based; conditions: OVCAR-3
MDA-MB-231 [18] = assay: Antitumor activity against human MDA-MB-231 cells xenografted in Balb nu/nu mouse assessed as reduction in tumor growth at 2 mg/kg, ip administered every other day for 10 days; type: functional, organism-based; parameters: dose 2 mg/kg
[19] = Reduction of HIF-1 alpha mRNA expression in human PANC1 cells at 5 to 10 uM by qRT-PCR analysis; type: functional, cell-based; conditions: PANC-1
[20] = molecular target: Endothelial PAS domain-containing protein 1 (Homo sapiens) (UniProt Q99814); assay: Inhibition of HIF-2 alpha in human MDA-MB-468 cells at 1 to 20 uM by Western blotting analysis in hypoxia condition; type: cell-based

Chain of Signal transducer and activator of transcription 3 (Homo sapiens) (P40763 whole entry): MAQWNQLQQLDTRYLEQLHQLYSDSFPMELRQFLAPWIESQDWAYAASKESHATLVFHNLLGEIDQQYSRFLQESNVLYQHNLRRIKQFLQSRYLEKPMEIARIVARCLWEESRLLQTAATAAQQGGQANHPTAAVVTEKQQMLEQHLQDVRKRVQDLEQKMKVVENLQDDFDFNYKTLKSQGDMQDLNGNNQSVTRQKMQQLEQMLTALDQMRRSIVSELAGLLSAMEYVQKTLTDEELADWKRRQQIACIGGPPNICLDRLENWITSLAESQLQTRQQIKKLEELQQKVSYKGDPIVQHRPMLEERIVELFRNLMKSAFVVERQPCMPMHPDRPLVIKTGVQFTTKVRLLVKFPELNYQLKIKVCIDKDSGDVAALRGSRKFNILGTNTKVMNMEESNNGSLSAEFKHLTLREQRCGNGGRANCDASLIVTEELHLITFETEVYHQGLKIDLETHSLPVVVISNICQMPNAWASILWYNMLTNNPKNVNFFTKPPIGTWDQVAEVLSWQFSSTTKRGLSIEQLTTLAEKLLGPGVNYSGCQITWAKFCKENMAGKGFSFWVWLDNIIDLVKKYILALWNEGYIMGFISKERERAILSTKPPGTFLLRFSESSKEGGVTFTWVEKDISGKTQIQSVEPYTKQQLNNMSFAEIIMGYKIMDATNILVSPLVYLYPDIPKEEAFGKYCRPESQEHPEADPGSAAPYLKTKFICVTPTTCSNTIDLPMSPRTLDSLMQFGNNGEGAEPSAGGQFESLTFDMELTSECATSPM
Chain of Endothelial PAS domain-containing protein 1 (Homo sapiens) (Q99814 whole entry, the tested form may be a part): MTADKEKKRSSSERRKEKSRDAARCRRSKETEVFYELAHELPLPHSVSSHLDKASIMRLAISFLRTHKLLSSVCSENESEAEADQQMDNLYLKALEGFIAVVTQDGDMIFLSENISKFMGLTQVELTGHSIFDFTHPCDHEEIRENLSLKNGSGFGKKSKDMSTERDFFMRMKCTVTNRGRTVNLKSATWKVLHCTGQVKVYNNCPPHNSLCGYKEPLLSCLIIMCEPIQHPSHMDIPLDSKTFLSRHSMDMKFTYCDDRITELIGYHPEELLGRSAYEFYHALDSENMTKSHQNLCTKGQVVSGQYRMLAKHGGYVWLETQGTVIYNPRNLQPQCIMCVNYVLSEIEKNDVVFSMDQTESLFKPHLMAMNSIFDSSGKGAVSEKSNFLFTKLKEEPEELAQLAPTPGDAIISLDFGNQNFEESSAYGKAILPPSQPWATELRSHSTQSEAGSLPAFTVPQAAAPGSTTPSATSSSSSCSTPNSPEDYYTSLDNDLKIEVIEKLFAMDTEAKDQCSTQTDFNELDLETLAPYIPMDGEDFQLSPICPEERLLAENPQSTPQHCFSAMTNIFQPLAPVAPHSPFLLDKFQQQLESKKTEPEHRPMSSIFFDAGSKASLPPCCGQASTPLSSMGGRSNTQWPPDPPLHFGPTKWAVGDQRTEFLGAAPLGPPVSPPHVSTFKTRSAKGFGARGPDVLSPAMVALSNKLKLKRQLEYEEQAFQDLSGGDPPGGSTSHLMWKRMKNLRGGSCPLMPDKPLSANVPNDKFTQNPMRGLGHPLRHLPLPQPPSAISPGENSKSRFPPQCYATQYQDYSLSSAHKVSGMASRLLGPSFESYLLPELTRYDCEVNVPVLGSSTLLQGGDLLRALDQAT
Chain of Hypoxia-inducible factor 1-alpha (Homo sapiens) (Q16665 whole entry, looked up): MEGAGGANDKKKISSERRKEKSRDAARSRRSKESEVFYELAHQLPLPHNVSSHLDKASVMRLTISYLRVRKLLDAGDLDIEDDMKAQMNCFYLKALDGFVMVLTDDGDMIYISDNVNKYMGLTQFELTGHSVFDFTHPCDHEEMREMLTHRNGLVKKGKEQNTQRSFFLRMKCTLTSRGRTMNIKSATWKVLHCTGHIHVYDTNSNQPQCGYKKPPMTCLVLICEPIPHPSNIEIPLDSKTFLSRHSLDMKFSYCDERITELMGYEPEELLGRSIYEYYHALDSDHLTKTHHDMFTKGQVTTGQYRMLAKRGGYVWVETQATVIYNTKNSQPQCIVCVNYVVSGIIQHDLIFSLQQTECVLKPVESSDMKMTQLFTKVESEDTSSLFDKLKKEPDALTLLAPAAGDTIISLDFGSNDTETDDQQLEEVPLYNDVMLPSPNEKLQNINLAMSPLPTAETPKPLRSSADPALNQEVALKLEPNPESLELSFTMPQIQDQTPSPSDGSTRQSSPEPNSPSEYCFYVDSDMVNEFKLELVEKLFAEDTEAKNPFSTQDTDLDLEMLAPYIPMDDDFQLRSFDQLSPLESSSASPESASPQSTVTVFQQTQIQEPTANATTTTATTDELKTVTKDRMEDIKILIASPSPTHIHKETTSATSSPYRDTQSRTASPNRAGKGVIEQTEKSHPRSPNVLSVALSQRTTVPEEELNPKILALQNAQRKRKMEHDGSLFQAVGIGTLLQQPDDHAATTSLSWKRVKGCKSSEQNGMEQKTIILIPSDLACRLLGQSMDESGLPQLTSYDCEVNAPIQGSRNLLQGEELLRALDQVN
Chain of Aryl hydrocarbon receptor nuclear translocator (Homo sapiens) (P27540 whole entry): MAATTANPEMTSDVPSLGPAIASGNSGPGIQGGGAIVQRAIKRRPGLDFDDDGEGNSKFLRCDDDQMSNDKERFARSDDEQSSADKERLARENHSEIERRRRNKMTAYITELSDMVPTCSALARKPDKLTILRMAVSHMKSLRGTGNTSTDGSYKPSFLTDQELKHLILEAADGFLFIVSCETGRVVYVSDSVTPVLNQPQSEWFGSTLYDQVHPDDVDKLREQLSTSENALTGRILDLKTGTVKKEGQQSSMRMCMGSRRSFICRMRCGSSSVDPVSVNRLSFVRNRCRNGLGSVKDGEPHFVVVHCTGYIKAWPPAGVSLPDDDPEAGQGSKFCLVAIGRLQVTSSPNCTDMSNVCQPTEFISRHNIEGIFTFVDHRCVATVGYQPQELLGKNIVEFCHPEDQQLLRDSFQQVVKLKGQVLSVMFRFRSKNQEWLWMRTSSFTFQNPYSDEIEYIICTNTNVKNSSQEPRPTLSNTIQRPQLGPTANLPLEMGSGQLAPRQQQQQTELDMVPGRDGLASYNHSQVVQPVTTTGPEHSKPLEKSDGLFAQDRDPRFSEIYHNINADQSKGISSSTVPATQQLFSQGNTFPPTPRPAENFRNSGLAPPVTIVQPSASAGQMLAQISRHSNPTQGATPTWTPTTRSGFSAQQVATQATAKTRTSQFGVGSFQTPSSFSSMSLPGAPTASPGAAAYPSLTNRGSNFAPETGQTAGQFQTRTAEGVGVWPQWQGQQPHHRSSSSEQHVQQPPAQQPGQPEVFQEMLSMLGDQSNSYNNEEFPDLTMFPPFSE
Chain of Proto-oncogene tyrosine-protein kinase Src (Homo sapiens) (P12931 2-536 limits assumed): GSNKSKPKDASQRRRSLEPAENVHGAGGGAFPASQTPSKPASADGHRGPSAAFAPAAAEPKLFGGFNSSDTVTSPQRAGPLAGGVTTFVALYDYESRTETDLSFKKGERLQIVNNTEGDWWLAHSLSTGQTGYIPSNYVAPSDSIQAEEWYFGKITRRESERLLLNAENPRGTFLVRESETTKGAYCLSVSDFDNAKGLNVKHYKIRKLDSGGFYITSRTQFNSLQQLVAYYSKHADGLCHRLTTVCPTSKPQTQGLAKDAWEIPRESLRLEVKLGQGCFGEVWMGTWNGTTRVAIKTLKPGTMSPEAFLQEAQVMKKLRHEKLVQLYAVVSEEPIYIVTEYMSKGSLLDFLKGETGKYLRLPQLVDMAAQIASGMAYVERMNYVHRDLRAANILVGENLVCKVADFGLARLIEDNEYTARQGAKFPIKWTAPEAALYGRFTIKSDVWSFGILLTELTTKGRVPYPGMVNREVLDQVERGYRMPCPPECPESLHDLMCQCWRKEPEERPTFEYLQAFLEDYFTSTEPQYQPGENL
Chain of RAC-alpha serine/threonine-protein kinase (Homo sapiens) (P31749 whole entry): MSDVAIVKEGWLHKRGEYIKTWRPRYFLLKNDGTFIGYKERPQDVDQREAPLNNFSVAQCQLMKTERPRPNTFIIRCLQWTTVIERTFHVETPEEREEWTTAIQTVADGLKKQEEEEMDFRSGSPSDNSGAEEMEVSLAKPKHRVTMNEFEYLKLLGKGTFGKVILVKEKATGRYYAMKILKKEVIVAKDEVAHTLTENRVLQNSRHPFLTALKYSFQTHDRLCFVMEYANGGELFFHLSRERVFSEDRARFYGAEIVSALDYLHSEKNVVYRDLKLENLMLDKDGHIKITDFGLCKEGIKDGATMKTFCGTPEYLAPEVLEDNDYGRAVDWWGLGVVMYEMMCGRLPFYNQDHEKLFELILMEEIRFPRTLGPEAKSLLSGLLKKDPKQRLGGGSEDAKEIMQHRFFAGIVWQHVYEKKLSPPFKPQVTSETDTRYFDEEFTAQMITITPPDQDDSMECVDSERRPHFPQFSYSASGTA

inhibition [1]: Active | inhibition [3]: inactive | inhibition [7]: Active | inhibition [8]: Active | inhibition [9]: inactive | inhibition [11]: Active | inhibition [12]: Active | inhibition [13]: inactive | inhibition [15]: inactive | inhibition [17]: Active | inhibition [20]: Active
SMILES: CN(C)CCCN1C(=O)c2ccc3c4ccc5c6c(ccc(c7ccc(c2c37)C1=O)c64)C(=O)N(CCCN(C)C)C5=O
Activity (MDA-MB-231 [2]): inactive | Activity (MDA-MB-231 [4]): Active | Activity [5]: 75 mm3 | Activity (MDA-MB-468 [6]): Active | Activity (MCF7): Active | Activity (MDA-MB-468 [10]): Active | inhibition (PANC-1): inactive | Activity (Mus musculus): Non-toxic | inhibition (MDA-MB-468 [14]): Active | Activity (MDA-MB-231 [16]): Active | Activity (MDA-MB-231 [18]): Active | Activity [19]: inactive
